Measured values reported in PubChem BioAssay AID2060885 (Molecular Pharmacology Branch, DTP, NCI, 2025).
pIC50: −log10 of the molar value.

Test system: NCI-H23 complex spheroids with HUVEC/MSC, viability
Experiment: Anticancer human tumor NCI-H23 cell line growth inhibition [RAS];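 note: spheroids exposed to compound for 7 days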;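 for viability, T/C: 100% = DMSO vehicle control viability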
Settings: for pIC50: curve of first compound; for viability, T/C: stronger effect = lower value
Procedure, shortened: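 Tumour cells grown as complex spheroids with HUVEC endothelial cells and mesenchymal stem cells, treated with RAS pathway inhibitor combinations. Each agent spans half-log steps from near clinical Cmax, or 10 microM where Cmax is unknown.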

[1] = second compound 0.0316 µM, first compound 0.0316 µM
[2] = second compound 0.0316 µM, first compound 0.1 µM
[3] = second compound 0.0316 µM, first compound 0.316 µM
[4] = second compound 0.0316 µM, first compound 1 µM
[5] = second compound 0.1 µM, first compound 0.0316 µM
[6] = second compound 0.1 µM, first compound 0.1 µM
[7] = second compound 0.1 µM, first compound 0.316 µM
[8] = second compound 0.1 µM, first compound 1 µM
[9] = second compound 0.316 µM, first compound 0.0316 µM
[10] = second compound 0.316 µM, first compound 0.1 µM
[11] = second compound 0.316 µM, first compound 0.316 µM
[12] = second compound 0.316 µM, first compound 1 µM
[13] = second compound 1 µM, first compound 0.0316 µM
[14] = second compound 1 µM, first compound 0.1 µM
[15] = second compound 1 µM, first compound 0.316 µM
[16] = second compound 1 µM, first compound 1 µM
[17] = second compound 3.16 µM, first compound 0.0316 µM
[18] = second compound 3.16 µM, first compound 0.1 µM
[19] = second compound 3.16 µM, first compound 0.316 µM
[20] = second compound 3.16 µM, first compound 1 µM
[21] = second compound 10 µM, first compound 0.0316 µM
[22] = second compound 10 µM, first compound 0.1 µM
[23] = second compound 10 µM, first compound 0.316 µM
[24] = second compound 10 µM, first compound 1 µM

Question: Which results are given for `CC(=O)OC12COC1CC(O)C1(C)C(=O)C(O)C3=C(C)C(OC(=O)C(O)C(NC(=O)OC(C)(C)C)c4ccccc4)CC(O)(C(OC(=O)c4ccccc4)C21)C3(C)C` (stereo unspecified) + C#Cc1c(F)ccc2cc(O)cc(-c3ncc4c(N5CC6CCC(C5)N6)nc(OCC56CCCN5CC(F)C6)nc4c3F)c12?
Answer: pIC50 (second compound 0.0316 µM): > 7.50; pIC50 (second compound 0.1 µM): > 7.50; pIC50 (second compound 0.316 µM): > 7.50; pIC50 (second compound 1 µM): > 7.50; pIC50 (second compound 3.16 µM): > 7.50; pIC50 (second compound 10 µM): > 7.50; viability, T/C [1]: 30.7%; viability, T/C [2]: 41.2%; viability, T/C [3]: 37.2%; viability, T/C [4]: 32.2%; viability, T/C (second compound 0.0316 µM, first compound 3.16 µM): 47.1%; viability, T/C (second compound 0.0316 µM, first compound 10 µM): 62.8%; viability, T/C [5]: 27.8%; viability, T/C [6]: 36.6%; viability, T/C [7]: 34.6%; viability, T/C [8]: 30.9%; viability, T/C (second compound 0.1 µM, first compound 3.16 µM): 56.1%; viability, T/C (second compound 0.1 µM, first compound 10 µM): 71.2%; viability, T/C [9]: 34.1%; viability, T/C [10]: 35.6%; viability, T/C [11]: 31.3%; viability, T/C [12]: 32%; viability, T/C (second compound 0.316 µM, first compound 3.16 µM): 46.1%; viability, T/C (second compound 0.316 µM, first compound 10 µM): 57.2%; viability, T/C [13]: 27.3%; viability, T/C [14]: 30.5%; viability, T/C [15]: 32%; viability, T/C [16]: 23.6%; viability, T/C (second compound 1 µM, first compound 3.16 µM): 36.4%; viability, T/C (second compound 1 µM, first compound 10 µM): 46.6%; viability, T/C [17]: 20.1%; viability, T/C [18]: 21.6%; viability, T/C [19]: 21.2%; viability, T/C [20]: 23.6%; viability, T/C (second compound 3.16 µM, first compound 3.16 µM): 25.6%; viability, T/C (second compound 3.16 µM, first compound 10 µM): 39%; viability, T/C [21]: 17.9%; viability, T/C [22]: 20.7%; viability, T/C [23]: 16.5%; viability, T/C [24]: 19.1%; viability, T/C (second compound 10 µM, first compound 3.16 µM): 23.1%; viability, T/C (second compound 10 µM, first compound 10 µM): 30.5%

Question: With `CCc1c2c(nc3ccc(O)cc13)-c1cc3c(c(=O)n1C2)COC(=O)[C@]3(O)CC` + C#Cc1c(F)ccc2cc(O)cc(-c3ncc4c(N5CC6CCC(C5)N6)nc(OCC56CCCN5CC(F)C6)nc4c3F)c12 as the compound, how does the pIC50 (second compound 0.0316 µM) read?
Answer: 8.25

Question: And the pIC50 (second compound 0.1 µM)?
Answer: 8.32

Question: And the pIC50 (second compound 0.316 µM)?
Answer: 8.31

Question: What about the pIC50 (second compound 1 µM) of the same compound?
Answer: 8.54

Question: What about the pIC50 (second compound 3.16 µM) of the same compound?
Answer: 8.90

Question: What about the pIC50 (second compound 10 µM) of the same compound?
Answer: > 9.02

Question: And the viability, T/C (second compound 0.0316 µM, first compound 0.000949 µM)?
Answer: 74.6%

Question: What about the viability, T/C (second compound 0.0316 µM, first compound 0.003 µM) of the same compound?
Answer: 75.5%

Question: What about the viability, T/C (second compound 0.0316 µM, first compound 0.00949 µM) of the same compound?
Answer: 29.9%

Question: And the viability, T/C (second compound 0.0316 µM, first compound 0.03 µM)?
Answer: 13.3%

Question: And the viability, T/C (second compound 0.0316 µM, first compound 0.0949 µM)?
Answer: 9.2%

Question: What about the viability, T/C (second compound 0.0316 µM, first compound 0.3 µM) of the same compound?
Answer: 5.86%

Question: And the viability, T/C (second compound 0.1 µM, first compound 0.000949 µM)?
Answer: 87.8%

Question: What about the viability, T/C (second compound 0.1 µM, first compound 0.003 µM) of the same compound?
Answer: 64.6%

Question: What about the viability, T/C (second compound 0.1 µM, first compound 0.00949 µM) of the same compound?
Answer: 28.2%

Question: And the viability, T/C (second compound 0.1 µM, first compound 0.03 µM)?
Answer: 14.7%

Question: And the viability, T/C (second compound 0.1 µM, first compound 0.0949 µM)?
Answer: 9.07%

Question: And the viability, T/C (second compound 0.1 µM, first compound 0.3 µM)?
Answer: 6.92%

Question: What about the viability, T/C (second compound 0.316 µM, first compound 0.000949 µM) of the same compound?
Answer: 96.7%

Question: And the viability, T/C (second compound 0.316 µM, first compound 0.003 µM)?
Answer: 67.8%

Question: What about the viability, T/C (second compound 0.316 µM, first compound 0.00949 µM) of the same compound?
Answer: 25.4%

Question: What about the viability, T/C (second compound 0.316 µM, first compound 0.03 µM) of the same compound?
Answer: 12.8%

Question: What about the viability, T/C (second compound 0.316 µM, first compound 0.0949 µM) of the same compound?
Answer: 9.27%

Question: And the viability, T/C (second compound 0.316 µM, first compound 0.3 µM)?
Answer: 5.24%

Question: What about the viability, T/C (second compound 1 µM, first compound 0.000949 µM) of the same compound?
Answer: 86.9%

Question: And the viability, T/C (second compound 1 µM, first compound 0.003 µM)?
Answer: 49.4%

Question: And the viability, T/C (second compound 1 µM, first compound 0.00949 µM)?
Answer: 18.9%

Question: And the viability, T/C (second compound 1 µM, first compound 0.03 µM)?
Answer: 12.2%

Question: What about the viability, T/C (second compound 1 µM, first compound 0.0949 µM) of the same compound?
Answer: 7.17%

Question: And the viability, T/C (second compound 1 µM, first compound 0.3 µM)?
Answer: 4.02%

Question: And the viability, T/C (second compound 3.16 µM, first compound 0.000949 µM)?
Answer: 56.1%

Question: What about the viability, T/C (second compound 3.16 µM, first compound 0.003 µM) of the same compound?
Answer: 30.8%

Question: And the viability, T/C (second compound 3.16 µM, first compound 0.00949 µM)?
Answer: 11.7%

Question: And the viability, T/C (second compound 3.16 µM, first compound 0.03 µM)?
Answer: 5.93%

Question: What about the viability, T/C (second compound 3.16 µM, first compound 0.0949 µM) of the same compound?
Answer: 3.68%

Question: What about the viability, T/C (second compound 3.16 µM, first compound 0.3 µM) of the same compound?
Answer: 2.2%

Question: What about the viability, T/C (second compound 10 µM, first compound 0.000949 µM) of the same compound?
Answer: 31.7%

Question: What about the viability, T/C (second compound 10 µM, first compound 0.003 µM) of the same compound?
Answer: 20.2%

Question: What about the viability, T/C (second compound 10 µM, first compound 0.00949 µM) of the same compound?
Answer: 8.85%

Question: What about the viability, T/C (second compound 10 µM, first compound 0.03 µM) of the same compound?
Answer: 5.36%

Question: And the viability, T/C (second compound 10 µM, first compound 0.0949 µM)?
Answer: 3.22%

Question: And the viability, T/C (second compound 10 µM, first compound 0.3 µM)?
Answer: 2.27%

Question: How did the pIC50 (second compound 0.0316 µM) turn out when `Nc1ccn(C2OC(CO)C(O)C2(F)F)c(=O)n1` (stereo unspecified) + C#Cc1c(F)ccc2cc(O)cc(-c3ncc4c(N5CC6CCC(C5)N6)nc(OCC56CCCN5CC(F)C6)nc4c3F)c12 was run?
Answer: 8.26

Question: And the pIC50 (second compound 0.1 µM)?
Answer: 8.24

Question: What about the pIC50 (second compound 0.316 µM) of the same compound?
Answer: 8.23

Question: And the pIC50 (second compound 1 µM)?
Answer: 8.30

Question: What about the pIC50 (second compound 3.16 µM) of the same compound?
Answer: > 8.50

Question: What about the pIC50 (second compound 10 µM) of the same compound?
Answer: > 8.50

Question: What about the viability, T/C (second compound 0.0316 µM, first compound 0.00316 µM) of the same compound?
Answer: 79.1%

Question: What about the viability, T/C (second compound 0.0316 µM, first compound 0.01 µM) of the same compound?
Answer: 19.3%

Question: What about the viability, T/C [1] of the same compound?
Answer: 9.28%

Question: And the viability, T/C [2]?
Answer: 9.72%

Question: And the viability, T/C [3]?
Answer: 8.73%

Question: What about the viability, T/C [4] of the same compound?
Answer: 9.82%

Question: What about the viability, T/C (second compound 0.1 µM, first compound 0.00316 µM) of the same compound?
Answer: 86.3%

Question: What about the viability, T/C (second compound 0.1 µM, first compound 0.01 µM) of the same compound?
Answer: 17.8%

Question: What about the viability, T/C [5] of the same compound?
Answer: 8.54%

Question: And the viability, T/C [6]?
Answer: 7.52%

Question: And the viability, T/C [7]?
Answer: 10.5%

Question: What about the viability, T/C [8] of the same compound?
Answer: 8.63%

Question: What about the viability, T/C (second compound 0.316 µM, first compound 0.00316 µM) of the same compound?
Answer: 88.8%

Question: What about the viability, T/C (second compound 0.316 µM, first compound 0.01 µM) of the same compound?
Answer: 15.8%

Question: What about the viability, T/C [9] of the same compound?
Answer: 7.89%

Question: What about the viability, T/C [10] of the same compound?
Answer: 5.29%

Question: And the viability, T/C [11]?
Answer: 6.95%

Question: What about the viability, T/C [12] of the same compound?
Answer: 7.88%

Question: And the viability, T/C (second compound 1 µM, first compound 0.00316 µM)?
Answer: 74.8%

Question: And the viability, T/C (second compound 1 µM, first compound 0.01 µM)?
Answer: 12.1%

Question: And the viability, T/C [13]?
Answer: 4.25%

Question: What about the viability, T/C [14] of the same compound?
Answer: 5%

Question: And the viability, T/C [15]?
Answer: 5.26%

Question: What about the viability, T/C [16] of the same compound?
Answer: 7.16%

Question: And the viability, T/C (second compound 3.16 µM, first compound 0.00316 µM)?
Answer: 45.2%

Question: What about the viability, T/C (second compound 3.16 µM, first compound 0.01 µM) of the same compound?
Answer: 5.88%

Question: And the viability, T/C [17]?
Answer: 3.82%

Question: And the viability, T/C [18]?
Answer: 2.55%

Question: What about the viability, T/C [19] of the same compound?
Answer: 3.3%

Question: And the viability, T/C [20]?
Answer: 3.59%

Question: What about the viability, T/C (second compound 10 µM, first compound 0.00316 µM) of the same compound?
Answer: 23.2%

Question: What about the viability, T/C (second compound 10 µM, first compound 0.01 µM) of the same compound?
Answer: 5.01%

Question: And the viability, T/C [21]?
Answer: 4.01%

Question: What about the viability, T/C [22] of the same compound?
Answer: 2.92%

Question: What about the viability, T/C [23] of the same compound?
Answer: 3.19%

Question: What about the viability, T/C [24] of the same compound?
Answer: 3.79%
